This is an account of results in PubChem BioAssay AID2137 (Broad Institute, 2009).

Where “and” joins values, the source holds several entries; their conditions need not be identical. Identical values can stand only once. Results filed as inconclusive are left out. Calls of active or inactive are those of the source.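 How the source made its calls: active means IC50 at most ten times the top tested dose; inconclusive means flat fit with 30 to 70% activity, or an invalid poor fit; inactive means the rest.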 Bounds are passed on as bounds.

As usually defined, the IC50 is the concentration that inhibits the measured activity by half.

The target in the experiment is S. pyogenes M1 GAS streptokinase expression, plasminogen activation OD405. The experiment can be described thus: reduced streptokinase-driven plasminogen activation (OD405), dose response, streptokinase expression inhibitor project, absorbance readout, M1 GAS (AID 2137).
On to `CC(C)c1ccc(NC(=O)c2cc(S(=O)(=O)NCC3COc4ccccc4O3)ccc2F)cc1` (stereo not given), for which the IC50 was 3.65 µM.

Take `CCCCn1c(=O)c(C(=O)NCc2ccccc2)c(O)c2ccccc21`: the IC50 was > 500 µM (inactive).

In the case of `CN(C)c1ccc(C(=O)n2c3ccccc3c3ccccc32)cc1`, the concentration for half-maximal inhibition (IC50) is 4.09 µM.

Take `Cn1c(=O)c2c(nc(SCc3ccccc3)n2Cc2ccc(Cl)cc2)n(C)c1=O`: the half-inhibitory concentration (IC50) was 5.9 µM.

Regarding `CC[C@@H](C)[C@H](NC(=O)OC(C)(C)C)c1nnc(S(=O)(=O)Cc2cc(C)ccc2C)o1`, the IC50 was 4.15 µM.

As for `O=C(NC(=S)Nc1ccccc1N1CCCC1)c1ccccc1Br`, the IC50 was 23.6 µM.

Regarding `N#Cc1ccc(C(=O)n2c3ccccc3c3ccccc32)cc1`, the IC50 is 57.7 µM.

As to `O=C(CSc1ccccc1)N1c2ccccc2Sc2ccccc21`, the IC50 is 9.11 µM.

With `Cc1ccc(C(=O)n2c3ccccc3c3ccccc32)cc1`, the concentration for half-maximal inhibition (IC50) is 2.89 µM.

`CN1C(=O)/C(=C\c2cccn2-c2ccc3ccccc3c2)C(=O)NC1=S`: the concentration for half-maximal inhibition (IC50) is 5.42 µM.

As for `Cc1noc(C)c1CSc1nc2sc(C)c(C)c2c(=O)n1C1CCCC1`, the IC50 is 3.13 µM.

On to `CC1CCN(C(=O)N2c3ccccc3Sc3ccccc32)CC1`, for which the half-maximal inhibitory concentration (IC50) is 15 µM.

In the case of `O=C(Nc1cc(S(=O)(=O)Nc2ccc(Cl)cc2)ccc1N1CCCCC1)c1ccc(F)cc1`, the IC50 is 4 µM.

Take `FC(F)(F)c1cc(-c2ccco2)nc(NCc2ccc(Cl)cc2)n1`: the IC50 was > 500 µM (inactive).

For the compound `Cc1ccc(C(=O)N2c3ccccc3Sc3ccccc32)cc1`, the IC50 was 46.5 µM.

`Cc1cc2oc(=O)cc(CN(C)Cc3ccccc3)c2cc1C(C)C`: the IC50 was 9.18 µM.

On to `CC(=O)N(C)c1ccc(OCC(O)Cn2c3ccc(Cl)cc3c3cc(Cl)ccc32)cc1` (stereo not given), for which the IC50 is 4.94 µM.

Consider `O=C(CSc1ccc(Cl)cc1)N1c2ccccc2Sc2ccccc21`, for which the IC50 is 3.1 µM.

For `CCOC(=O)c1c(NC(=O)c2cccs2)sc(CC)c1-c1cccs1`, the IC50 is 21.8 µM.

`O=C(c1ccccc1C(F)(F)F)n1c2ccccc2c2ccccc21`: the half-inhibitory concentration (IC50) was 6.62 µM.

On to `COc1cccc(C(=O)n2c3ccccc3c3ccccc32)c1`, for which the half-maximal inhibitory concentration (IC50) is 13.7 µM.

In the case of `Cc1ccc(C(=O)C(c2ccccc2)N2Cc3ccccc3C2=N)cc1` (stereo not given), the half-inhibitory concentration (IC50) was 8.38 µM.

With `FC(F)(F)c1cccc(-c2cc3ccccc3nc2N2CCCC2)c1`, the half-inhibitory concentration (IC50) is 3.94 µM.

In the case of `O=C(c1ccc(F)cc1)n1c2ccccc2c2ccccc21`, the half-maximal inhibitory concentration (IC50) is 6.27 µM.

Consider `O=C(CSc1cccs1)N1c2ccccc2Sc2ccccc21`, for which the IC50 was 33.8 µM.

`CC(C)(C)N/N=C1\CC(c2ccccc2)Oc2ccccc21` (stereo not given): the concentration for half-maximal inhibition (IC50) was 7.95 µM.

Regarding `COCc1cc(Sc2c(Cl)cccc2Cl)nc(-c2ccccc2)n1`, the concentration for half-maximal inhibition (IC50) is 7.59 µM.

With `COc1ccc(-c2csc3ncnc(N4CCN(c5ccccc5Cl)CC4)c23)cc1`, the IC50 was 6.67 µM.

On to `COc1ccc(Nc2ncnc3scc(-c4ccc(OC)cc4)c23)cc1`, for which the IC50 was 5.7 µM.

`COc1ccc(Sc2ccc(NC(=O)c3ccccc3Cl)cc2C#N)cc1`: the 50% inhibitory concentration (IC50) was 2.27 µM.

Turning to `COC(=O)c1ccccc1NC(=O)c1nc(S(=O)(=O)Cc2ccccc2)ncc1Cl`, the concentration for half-maximal inhibition (IC50) is 3.37 µM.

For the compound `O=C(CSc1nc(-c2ccc(Cl)cc2)[nH]c(=O)n1)Nc1cccc(Cl)c1`, the IC50 is 3.54 µM.

On to `CCC1CCCCN1S(=O)(=O)c1ccc(NC(=O)c2nc(S(C)(=O)=O)ncc2Cl)cc1` (stereo not given), for which the 50% inhibitory concentration (IC50) is 1.17 µM.

Take `C=CCn1c(SCC#N)nc2c(c1=O)C(C)(C)Cc1ccccc1-2`: the IC50 was 10.1 µM.

In the case of `COc1ccc2oc(C(=O)N3CCN(C(c4ccccc4)c4ccccc4)CC3)c(C)c2c1`, the IC50 is 24.9 µM.

Regarding `Cc1ccc(/C=C/c2ccc(=O)n(Cc3ccccc3Cl)n2)cc1`, the IC50 is 14.2 µM.

As for `FC(F)(F)c1nc(N2CCN(c3ccccc3)CC2)nc2c1CCCCC2`, the IC50 is 1.73 µM.

As to `O=C(c1ccc(OC(F)(F)F)cc1)n1c2ccccc2c2ccccc21`, the half-maximal inhibitory concentration (IC50) is 6.36 µM.

With `CCN(CC)C(=S)SCC(=O)Nc1nc(-c2ccccc2)c(-c2ccccc2)o1`, the IC50 was 20.5 µM.

As for `COc1ccc(-c2nc(-c3cccs3)c(-c3cccs3)[nH]2)cc1OC`, the 50% inhibitory concentration (IC50) was 5.93 µM.

As to `Cc1ccc(SCC(=O)N2c3ccccc3Sc3ccccc32)cc1`, the IC50 was 7.6 µM and 5.6 µM.

For the compound `Cc1cc(C(=O)OC(C(=O)Nc2cccc(C(F)(F)F)c2)c2ccccc2)c(C)o1` (stereo not given), the IC50 was 7.09 µM.

For the compound `Cc1cc(C)c(NC(=O)c2oc3ccccc3c2COc2ccccc2)c(C)c1`, the IC50 was 98.8 µM.

Regarding `CCCOc1ccc(-c2nc(OC)c3ccccc3n2)cc1`, the IC50 was 4.03 µM.

In the case of `O=C(CSc1ccncc1)N1c2ccccc2Sc2ccccc21`, the IC50 is 83.6 µM.

Regarding `COc1ccc(SCC(=O)N2c3ccccc3Sc3ccccc32)cc1`, the IC50 is 6.54 µM.

For `O=C(c1ccc(Cl)cc1)n1c2ccccc2c2ccccc21`, the IC50 was 18.2 µM.

Consider `Cc1cc(C)c2nc(-c3ccncc3)cc(C(=O)N3CCN(Cc4ccccc4Cl)CC3)c2c1`, for which the IC50 was 9.54 µM.

Regarding `Clc1cccc(Cl)c1CSc1nnc(/C=C/c2ccccc2)o1`, the IC50 is 4.39 µM.

`CC1CC(C)CN(c2ncc3c(n2)CC(c2ccccc2Cl)CC3=O)C1` (stereo not given): the IC50 is 2.26 µM.
